We go through 1 molecule from patent publication EP0222912A1, “AGENT FOR TREATING ARTERIOSCLEROSIS” (ZERIA SHINYAKU KOGYO KABUSHIKI KAISHA, priority 1984, dated 1985).

Assay type in all cases: in vivo
For one series, the system named is dd mice. The experiment in a line: acute toxicity, oral, mice. The settings on record: 5 g/kg orally, five dd mice. The source says: (§1) In order to examine the acute toxicity of cycloartenol ferulate, it was orally administered to five dd mice and five SD rats.
The next series concerns SD rats. In words: acute toxicity, oral, rats. The settings on record: 5 g/kg orally, five SD rats.
From the text: as §1

The test system of series [1] is male SD rats. The method, then:
In order to examine the effect of decreasing lipids, male SD rats aged four weeks were classified into the following four groups: i.e. (1) an ordinary diet group (control); (2) a cholesterol diet group; (3) a cholesterol diet group to which cycloartenol ferulate was administered; and (4) a cholesterol diet group to which γ-oryzanol was administered.
Cycloartenol ferulate or γ-oryzanol was orally administered for 12 days repeatedly with the use of a metal probe. Each compound was administered in doses of 100 mg/kg, 500 mg/kg and 1000 mg/kg per animal a day. After each administration, blood of the animal was collected to determine free cholesterol (FC), triglyceride (TG) and phospholipids (PL) contained therein.

Series [2] deals with male SD rats. The experiment in a line: hyperlipemia induced by Triton WR-1339. The settings on record: 10 mg/kg intravenously with 300 mg/kg Triton WR-1339, blood 43 hours after injection. The procedure: In order to examine the mechanism of the lipid decreasing effect of cycloartenol ferulate the effect of the same on hyperlipemia induced by a surfactant (Triton WR-1339) was confirmed.
The test was conducted with male SD rats aged six weeks. 300 mg/kg of Triton WR-1339 was intravenously injected to each rat of the first group to thereby induce hyperlipemia (Triton control group), while 10 mg/kg of cycloartenol ferulate or 10 mg/kg of γ-oryzanol was intravenously injected simultaneously with 300 mg/kg of Triton WR-1339 to each rat of other groups, thus examining the effect of decreasing lipids. Blood of each animal was collected 43 hours after the intravenous injection.

With `COc1cc(/C=C/C(=O)O[C@H]2CC[C@]34C[C@]35CC[C@]3(C)[C@@H]([C@H](C)CCC=C(C)C)CC[C@@]3(C)[C@@H]5CC[C@H]4C2(C)C)ccc1O` [cycloartenol ferulate], the acute toxicity result in the series with dd mice and with SD rats was “no animal died nor showed any toxic symptom” in each case. Besides, in the series on male SD rats [1] (blood, cholesterol diet, oral, 12 days, 100, 500 and 1000 mg/kg a day, vs cholesterol diet group (Fig. 5)), the “free cholesterol (FC)” value was “lower than that of the cholesterol diet group to a statistically significant extent”. Also, the “triglyceride (TG)” value in the series with male SD rats [1] (blood, cholesterol diet, oral, 12 days, 100, 500 and 1000 mg/kg a day, vs cholesterol diet group (Fig. 6)) is given as “lower than that of the cholesterol diet group to a statistically significant extent”. Besides, the “phospholipids (PL)” value in the series on male SD rats [1] (blood, cholesterol diet, oral, 12 days, 100, 500 and 1000 mg/kg a day, vs cholesterol diet group (Fig. 7)) is reported as “lower than that of the cholesterol diet group to a statistically significant extent”. Besides, in the series with male SD rats [1] (cholesterol diet suppresses body weight gain, oral, 12 days (Fig. 12)), the body weight gain result is given as “accelerated the growth of animals”. Besides, the arteriosclerosis index result with male SD rats [1] (cholesterol diet, oral, 12 days (Fig. 9)) is listed as “remarkably lowers this index”. In addition, the “HDL-cholesterol (HDLC)” value with male SD rats [1] (cholesterol diet, oral, 12 days, vs cholesterol diet group (Fig. 8)) is recorded as “increase HDLC to a statistically significant extent”. In the series on male SD rats [1] (rat, in vivo, po), the GOT entry is “no changes”. Moreover, the GPT result in the series with male SD rats [1] (rat, in vivo, po) was “no changes”. In the series on male SD rats [2] (vs Triton control group and γ-oryzanol group (Fig. 13)), the TC entry is given as “significant decreases”. Besides, the FC result in the series on male SD rats [2] (vs Triton control group and γ-oryzanol group (Fig. 14)) is on record as “significant decreases”. Moreover, the TG result with male SD rats [2] (vs Triton control group and γ-oryzanol group (Fig. 15)) is “significant decreases”.
